Measured values published in patent publication US20210347823A1, “METHODS OF PHYSICOCHEMICAL-GUIDED PEPTIDE DESIGN AND NOVEL PEPTIDES DERIVED THEREFROM” (Massachusetts Institute of Technology, priority 2018, published 2021).
Where no end group is shown, it is not given here.

Experiments:
[1] = system: Gram-positive bacteria, Gram-negative bacteria and fungi (twelve different strains); experiment: Liquid growth inhibition MIC against larger panel of microorganisms (MIC average); type: cell-based; details: average of MIC over twelve different strains
Excerpt: FIGS. 5A-5D. Antimicrobial activity of second-generation library of synthetic peptides. FIG. 5A. In vitro activity of Pol-CP—NH2 and second generation of analogs against Gram-positive bacteria (Micrococcus luteus, Staphylococcus aureus, Staphylococcus epidermidis and Bacillus megaterium), Funghi (Candida albicans and Candida tropicalis) and Gram-negative bacteria (Escherichia coli, Enterobacter cloacae and Serratia marcescens). Experiments performed in triplicates. FIG. 5B. MIC (μmol L^−1) average vs fH in TFE/Water solution. FIG. 5C. Graph correlating MIC (μmol L^−1) averages vs H and (FIG. 5D) MIC (μmol L^−1) averages vs μH, where dots above the dashed line represent peptides with lower activity and dots below the dashed line show peptides with higher activity compared to the wild-type, in which one can observe ranges of optimal activity in determined intervals of H and μH values.
Microorganisms. The following strains were used: Micrococcus luteus A270, Staphylococcus aureus ATCC29213, Staphylococcus epidermidis ATCC12228, Bacillus megaterium ATCC10778 Escherichia coli SBS 363, Enterobacter cloacae ®-12, Serratia marcescens ATCC4112, Candida albicans MDM8, Candida tropicalis IOC4560 from Instituto Butanta, Sao Paulo, Brazil, and Escherichia coli BL21, Pseudomonas aeruginosa PA14, Pseudomonas aeruginosa PA01 and Staphylococcus aureus ATCC12600 from Synthetic Biology Group at MIT.
MIC assays. The MIC assays were performed using the broth microdilution method (Wiegand I. et al., Protoc. 3, 163-175 (2008); de la Fuente-Núñez C. et al., Antimicrob. Agents Chemother. 56, 2696-2704 (2012)) in sterile 96-well polypropylene microtiter plates. Peptides were added to the plate as solutions in BM2 minimal medium in concentrations ranging from 0 to 128 ? mol L^−1, and the bacteria were inoculated at a final concentration of 5×10^5 CFU mL^−1 per well. The plates were incubated at 37° C. for 24 h. The MIC was defined as the lowest concentration of compound at which no growth was observed. Additional liquid growth inhibition assays were done in Peptone Broth (PB, 0.5% NaCl, 1% Peptone at pH 7.4) and Potato Dextrose Broth (Invitrogen) were used for antibacterial and antifungal assays, respectively. Briefly, bacteria or fungi were incubated with serial dilutions of polybia-CP and analogs (50-0.09 μmol L^−1) in a 96-well microplate at 37° C. The microbial growth was assessed by measurements in a model 354 Multiskan Ascent microplate reader at A595nm, after 18 and 24 h (bacteria and fungi, respectively) incubation on a model 347CD FANEM incubator. MIC was defined as the minimal inhibitory concentration that prevents 100% of the bacterial growth. All assays were done in triplicate.

[2] = system: human red blood cells; experiment: Hemolytic activity assay; type: cell-based; details: for HC50: concentration needed for 50% hemolysis, human RBC in PBS, room temperature, 1 h, 0.1-100 μmol L^−1
Experimental: (§1) FIGS. 6A-6B. Hemolysis and resistance to protease-mediated degradation of engineered peptides. FIG. 6A. Schematic of experimental design and hemolytic assay results of Pol-CP—NH2 and derivatives, where hemolytic activity was evaluated by incubating the peptides (0.1-100 μmol L^−1) with human red blood cells in PBS at room temperature for 1 h. Experiments were performed in triplicate, (*p<0.05). FIG. 6B. Resistance to degradation of Pol-CP—NH2 and analogs exposed to fetal bovine serum (FBS) proteases for 6 h. Experiments were done in triplicate.
Hemolytic Activity Assays. Human erythrocytes were collected and washed three times by centrifugation at 300×g with PBS (pH 7.4). After the last centrifugation, the cells were resuspended in PBS pH 7.4. Aliquots at a concentration of 0.1 to 100 ? mol L^−1 of the peptides were added to the 96-well microplate, where in each well containing 50 ? L of a suspension of erythrocytes to 0.4% in a phosphate saline buffer (10 mmol L^−1 Na2HPO4, 1.8 mmol L^−1 […], pH 7.4, 137 mmol L^−1 NaCl and 2.7 mmol L^−1KCl). After that, the samples were incubated at room temperature for 1 h. Hemolysis was determined by reading absorbance at 405 nm of each well in a bed of plates. 1% SDS in PBS solution was used as positive control (Shalel S. et al., J. Colloid Interface Sci. 252, 66-76 (2002); Love L. J. Cell. Comp. Physiol. 36, 133-148 (1950)) and as negative control was used PBS only. MHC was defined as the maximal non-hemolytic concentration.

[3] = Stability assay in fetal bovine serum; type: in vitro ADME; details: for resistance to protease-mediated degradation: fetal bovine serum, 6 h
Experimental: as §1
Stability Assays. The stability assay was performed with GIBCO fetal bovine serum diluted to 25% in water. 20 ? L of a 10 mg mL^−1 peptide solution was added to 1 mL 25% serum solution and kept at 37° C. The experiments were made in triplicate and 100 ? L aliquots were taken at 0, 0.5, 1, 2, 4 and 6 h. 10 ? L of TFA was added to the aliquots and the new solution was kept at 5° C. for 10 min, after that it was centrifuged at 14,000 rpm for 15 min, according to Powell et al. (Powell M. F. et al., Pharm. Res. 10, 1268-1273 (1993)). The reaction kinetics was followed by liquid chromatography and the percentage of remaining peptide was calculated by integrating the peptide peak area.

[4] = system: HEK293 human embryonic kidney cells; experiment: Cytotoxicity assay (MTS); type: cell-based; details: for Cytotoxicity: HEK293, 48 h, MTS, peptides 0-64 μmol L^−1
Experimental: FIGS. 7A-7B. Cytotoxicity of engineered peptides. FIG. 7A. Schematic of the experimental design for cytotoxicity assays of Pol-CP—NH2 and derivatives against HEK293 human embryonic kidney cells. Briefly, cells were cultured in DMEM medium supplemented with FBS and antibiotics at 37° C. and 5% CO2. FIG. 7B. Results obtained by seeding HEK293 50,000 cells and incubating with peptides' solution (0-64 μmol L^−1) at 37° C. for 48 h. Cell viability was measured by MTS assay. All experiments were performed in triplicate.
Cytotoxicity assays. Human embryonic kidney 293 (HEK 293) cells were cultured in Dulbecco's Modified Eagle Medium (DMEM) supplemented with 10% Fetal Bovine Serum (FBS) and 1% penicillin-streptomycin at 37° C. in 5% CO2. The day before treatment, 50,000 HEK 293 cells were seeded into each well in 96-well plates. The peptides were added at concentrations ranging from 0 to 64 ? mol L^−1 and 48 h after exposure, cell viability was measured by means of MTS (dimethylthiazol-carboxymethoxyphenyl-sulfophenyl-tetrazolium) assay. Experiments were performed in triplicate for each condition.

[5] = system: E. coli BL21, P. aeruginosa PA01 and PA14, and S. aureus ATCC12600; experiment: In vitro antimicrobial activity against first set of bacteria (Ala-scan analogs); type: cell-based; details: Gram-positive and Gram-negative bacteria
Excerpt: FIGS. 2A-2E. Design, physicochemical features and activity of Pol-CP—NH2 and Ala-scan analogs. FIG. 2A. Theoretical physicochemical properties of interest of the wild type and Ala-scan analogs, where H denotes hydrophobicity, μH is the hydrophobic moment, q represents the net charge and P/N is the ratio of polar/non-polar residues in the sequence. Top to bottom, left to right the sequences correspond to SEQ ID NOs: 1-13. FIG. 2B. Schematic of the in vitro biological activity experimental design. Briefly, 10^4 bacterial cells and serially diluted peptides (0-128 μmol L^−1) were added to a 96-well plate and incubated at 37° C. One day after the exposure, the solution in each well was measured in a microplate reader (600 nm) to check inhibition of bacteria compared to the untreated controls and presented as heat maps of antimicrobial activities (μmol L^−1) against four bacteria strains: E. coli strain BL21, S. aureus strain ATCC12600 and P. aeruginosa strains PA01, and PA14. Assays were performed in triplicates. FIG. 2C. Graph correlating MIC (μmol L^−1) averages vs H and (FIG. 2D) MIC (μmol L^−1) averages vs μH, where dots […] the dashed line show peptides with higher activity compared to the wild type, in which one can observe ranges of optimal activity in determined intervals of H and μH values. FIG. 2E. […]

Compound | MIC Average [1] [µM] | HC50 [2] [µmol/L] | Cytotoxicity [4] [µmol/L] | further results
GLGTILGLLKSL-NH2 [Peptide 20, GLGTILGLLKSL-NH2] | 16.7 | >100.0 | >64.0 | resistance to protease-mediated degradation [3]: degraded in a few minutes
ILATILGLLKSL-NH2 [Peptide 3, ILATILGLLKSL-NH2] |  |  | >64.0 | 
ILGTLLGLKKSL-NH2 [Peptide 13, ILGTLLGLKKSL-NH2] | >50.0 | >100.0 |  | 
ILGTIAGLLKSL-NH2 [Peptide 6] |  |  |  | antimicrobial activity compared with wild type [5]: preserved the antimicrobial activity
CC[C@H](C)[C@H](N)C(=O)N[C@@H](CC(C)C)C(=O)NCC(=O)N[C@H](C(=O)N[C@H](C(=O)N[C@@H](CC(C)C)C(=O)NCC(=O)N[C@@H](CC(C)C)C(=O)N[C@@H](CC(C)C)C(=O)N[C@@H](CCCCN)C(=O)N[C@@H](CO)C(N)=O)[C@@H](C)CC)[C@@H](C)O [Peptide 18] | >50.0 | >100.0 |  | 
ILGTILALLKSL-NH2 [Peptide 7, ILGTILALLKSL-NH2] |  |  | 32.0 | 
ILGTALGLLKSL-NH2 [Peptide 5, ILGTALGLLKSL-NH2] |  |  | >64.0 | 
ILGTILGLLKAL-NH2 [Peptide 11, ILGTILGLLKAL-NH2] |  |  | 64.0 | 
ILGTILGLFKSL-NH2 [Peptide 17, ILGTILGLFKSL-NH2] | 20.0 | 50.0 |  | hemolytic activity (concentration at which hemolytic) ([2]; human red blood cells, range evaluated 0-100 μmol L^−1, listed as [Phe]^9-Pol-CP—NH2): ~50 µmol/L; hemolytic activity ([2]; range of concentrations evaluated 0-100 μmol L^−1): hemolytic
ILGKILGLLKSL-NH2 [Peptide 15, ILGKILGLLKSL-NH2] | 3.3 | >100.0 | 32.0 | remaining at 6 h, 0.196 mg/mL ([3]; fetal bovine serum diluted to 25% in water, after six hours of exposure to fetal bovine serum, read-out: remaining peptide (% of initial concentration added)): ~50%; resistance to protease-mediated degradation [3]: increased resistance to protease-mediated degradation; cytotoxic concentration relative to MIC against P. aeruginosa ([4]; HEK293 cytotoxicity vs MIC): two- to four-fold higher
ILGTKLGLLKSL-NH2 [Peptide 14, ILGTKLGLLKSL-NH2] | >50.0 | >100.0 |  | 
